Measured values as given in a melting point compilation (Tetko et al.).

Point of comparison: `COc1ccc(C(C)=O)c(F)c1`, melting point 52 °C. Against it:
- CC1=NN(c2ccc(C)cc2)C(=O)C1 — higher, 138 °C
- CC(=O)Oc1cccc(C#N)c1 — higher, 60 °C
- COc1ccc(-c2ccc(S(=O)(=O)NC(C)C(=O)O)cc2)cc1 (stereo not given) — higher, 179 °C
- COc1ccc(CC2NCC(O)C2OC(C)=O)cc1 (stereo not given) — higher, 141 °C
- O=S(=O)(O)C(F)(F)F — lower, < 25 °C
- CCC12CC3CC(C1)CC(C(=O)O)(C3)C2 — higher, 94 to 96 °C
- Nc1cnn(-c2ccccc2)c(=O)c1Cl — higher, 206 °C
- CCOC(=O)C(C)(C)C1=CCC2(C)C(CCC3C2CCC2(C)C(OCc4ccccc4)CCC32)C1 (stereo not given) — higher, 138 °C
- Cc1cc(C(c2ccc(C)o2)c2ccc(C)o2)c(O)c([N+](=O)[O-])c1 — higher, 93 °C
- COc1ccc(-c2ccccc2)cc1NNC(=O)OC(C)C — higher, 122 °C
- CCCOc1ccc2c(c1)C(c1ccc(OC)cc1OCC(=O)O)C(C(=O)O)C2c1ccc2c(c1)OCO2 (stereo not given) — higher, 254 °C
- Cc1cccc(Cn2nc(C(C)(C)C)cc2-c2nnc(S)o2)c1 — higher, 129 to 131 °C
- O=CC=Cn1ccnc1 — higher, 118 °C
- COc1ccc(-c2csc(/C(C#N)=N\Nc3ccncc3)n2)cc1 — higher, 255 °C
- O=C(O)c1cncc(C#Cc2ccccc2)c1 — higher, 245 to 247 °C
- N#Cc1ccc(F)c([N+](=O)[O-])c1 — higher, 92 °C
- NS(=O)(=O)c1ccc(SCCO)cc1 — higher, 112 °C
- O=C(NC(=S)Nc1ccccc1)c1ccccc1 — higher, 159 to 161 °C
- C=CCN(CC=C)C(SC)=C(C#N)C(N)=O — higher, 110 °C
- Cc1cccc([N+](=O)[O-])c1O — higher, 70 °C
- Cc1cc(Cc2cc(C)cc(C(C)(C)C)c2O)c(O)c(C(C)(C)C)c1 — higher, 123 °C
- O=C(O)COC(=O)Cc1ccccc1Nc1c(Cl)cccc1Cl — higher, 149 °C
- O=C(Cl)c1ccc(-c2ccccc2)cc1 — higher, 113 °C
- OC1CC(O)C(O)C(O)C1O (stereo not given) — higher, 236 °C
- CC1(/C(=N\Nc2ccc([N+](=O)[O-])cc2[N+](=O)[O-])C(=O)O)CCC(C(=O)O)C1(C)C (stereo not given) — higher, 191 °C
- CC(O)C(O)C(O)C(O)C=O (stereo not given) — higher, 122 °C
- CC(=O)CCc1oc2ccc(I)cc2c1-c1ccc(C)o1 — higher, 94 °C
- C1=CCC(c2ccncc2)CC1 (stereo not given) — lower, 22.1 °C
- CC(C)(C)OC(=O)N1CCCC(Oc2ccccc2[N+](=O)[O-])C1 (stereo not given) — higher, 74 to 75 °C
- Cc1nc(-c2ccccn2)nc(O)c1Cl — higher, 142 to 144 °C
- FC(F)(F)C(F)(F)C(F)(F)C(F)(C(F)(F)F)C(F)(F)F — lower, -119 °C
- Cc1ccnc(Nc2nc3ccccc3[nH]2)c1 — higher, 279 to 281 °C
- Cc1nc(/C(C#N)=C/c2ccc(O)cc2)sc1/N=N/c1ccc(Cl)cc1 — higher, 230 °C
- Nc1ccccc1-n1cccn1 — lower, 44 to 46 °C
- CS(=O)(=O)N1CCNCC1 — higher, 99 to 100 °C
- CCOC(=O)Nc1nc(N)c(C(N)=O)s1 — higher, 168 to 170 °C
- O=Cc1ccc(-c2cccs2)cc1 — higher, 67 to 68 °C
- ON=Cc1ccc[nH]1 — higher, 165 °C
- O=S(=O)(Cl)c1ccccc1OC(F)(F)F — lower, 31 °C
- Cc1noc(N)c1C — higher, 119 to 120 °C
- Cc1nc2ccc([N+](=O)[O-])cc2o1 — higher, 155 °C
- Cc1c(F)c(F)c(COC(=O)C2C(C=C(Cl)C(F)(F)F)C2(C)C)c(F)c1F (stereo not given) — lower, 44.6 °C
- CN(C)c1ccc(NC(N)=S)cc1 — higher, 190 °C
- O=C(O)c1ccc(-c2ccc([N+](=O)[O-])cc2)o1 — higher, 255 to 257 °C
- c1cc(-c2nnn[nH]2)ccn1 — higher, 265 to 267 °C
- O=S(=O)(c1ccccc1)n1ccc2cc(Br)ccc21 — higher, 90 to 93 °C
- Cc1cc(NN)nc2c1c(C)nn2C — higher, 199 to 205 °C
- COc1cc2c(cc1OC)C(c1ccc(C)o1)SC(c1ccc(C)o1)=N2 (stereo not given) — higher, 148 °C
- O=C1/C(=C/c2ccccc2)SC(=S)N1CN1CCOCC1 — higher, 121 °C
